Assay results as given in ChEMBL document CHEMBL3044635, “Effect of propiconazole and difenoconazole on the control of anthracnose of chilli fruits caused by Colletotrichum capsici” (Crop Prot, 2006).

Experiments:
[1] = test system: Colletotrichum truncatum; assay: Fungicidal activity against Colletotrichum capsici assessed as inhibition of mycelial growth; type: functional
[2] = test system: Colletotrichum truncatum; assay: Fungicidal activity against Colletotrichum capsici assessed as mycelial biomass at 1 ug/ml incubated 16 hr photoperiod for 20 days (reference value: 675 mg); type: functional
[3] = test system: Colletotrichum truncatum; assay: Fungicidal activity against Colletotrichum capsici assessed as sporulation at 50 ug/ml incubated 16 hr photoperiod for 20 days by haemocytometer (reference value: 0.081 x 10^6 ml'-1); type: functional
[4] = test system: Colletotrichum truncatum; assay: Fungicidal activity against Colletotrichum capsici assessed as sporulation at 0.5 ug/ml incubated 16 hr photoperiod for 20 days by haemocytometer (reference value: 0.081 x 10^6 ml'-1); type: functional
[5] = test system: Colletotrichum truncatum; assay: Fungicidal activity against Colletotrichum capsici assessed as inhibition of spore germination at 0.1 ug/ml after 48 to 96 hr relative to control; type: functional
[6] = test system: Colletotrichum truncatum; assay: Fungicidal activity against Colletotrichum capsici assessed as spore germination at 10 ug/ml after 48 to 96 hr (reference value: 70.2 CFU); type: functional
[7] = test system: Colletotrichum truncatum; assay: Fungicidal activity against Colletotrichum capsici assessed as linear growth at 0.5 ug/ml incubated 16 hr photoperiod for 20 days (reference value: 90 mm); type: functional
[8] = test system: Colletotrichum truncatum; assay: Fungicidal activity against Colletotrichum capsici assessed as mycelial biomass at 50 ug/ml incubated 16 hr photoperiod for 20 days (reference value: 675 mg); type: functional
[9] = test system: Colletotrichum truncatum; assay: Fungicidal activity against Colletotrichum capsici assessed as spore germination at 25 ug/ml after 48 to 96 hr (reference value: 70.2 CFU); type: functional
[10] = test system: Colletotrichum truncatum; assay: Fungicidal activity against Colletotrichum capsici assessed as linear growth at 0.1 ug/ml incubated 16 hr photoperiod for 20 days (reference value: 90 mm); type: functional
[11] = test system: Colletotrichum truncatum; assay: Fungicidal activity against Colletotrichum capsici assessed as sporulation at 5 ug/ml incubated 16 hr photoperiod for 20 days by haemocytometer (reference value: 0.081 x 10^6 ml'-1); type: functional
[12] = test system: Colletotrichum truncatum; assay: Fungicidal activity against Colletotrichum capsici infected chilli plant assessed as fruit mass measured per pot at 0.1% applied as spray on day 10 post inoculation and twice every 20 days measured on day 155 post sowing in green house conditions (reference value: 85.3 to 94.5 g); type: functional
[13] = test system: Colletotrichum truncatum; assay: Fungicidal activity against Colletotrichum capsici assessed as reduction of polygalacturonase trans-eliminase production at 1 ug/ml incubated for 10 days measured up to 120 min by Ostwald-Fenske viscometric analysis (reference value: 40.8%); type: functional; design: scale not given: the % may be the effect or the level left
[14] = test system: Colletotrichum truncatum; assay: Fungicidal activity against Colletotrichum capsici assessed as mycelial biomass at 25 ug/ml incubated 16 hr photoperiod for 20 days (reference value: 675 mg); type: functional
[15] = test system: Colletotrichum truncatum; assay: Fungicidal activity against Colletotrichum capsici assessed as linear growth at 1 ug/ml incubated 16 hr photoperiod for 20 days (reference value: 90 mm); type: functional
[16] = test system: Colletotrichum truncatum; assay: Fungicidal activity against Colletotrichum capsici assessed as linear growth at 25 ug/ml incubated 16 hr photoperiod for 20 days (reference value: 90 mm); type: functional
[17] = test system: Colletotrichum truncatum; assay: Fungicidal activity against Colletotrichum capsici assessed as linear growth at 10 ug/ml incubated 16 hr photoperiod for 20 days (reference value: 90 mm); type: functional
[18] = test system: Colletotrichum truncatum; assay: Fungicidal activity against Colletotrichum capsici assessed as sporulation at 10 ug/ml incubated 16 hr photoperiod for 20 days by haemocytometer (reference value: 0.081 x 10^6 ml'-1); type: functional
[19] = test system: Colletotrichum truncatum; assay: Fungicidal activity against Colletotrichum capsici assessed as sporulation at 0.1 ug/ml incubated 16 hr photoperiod for 20 days by haemocytometer (reference value: 0.081 x 10^6 ml'-1); type: functional
[20] = test system: Colletotrichum truncatum; assay: Fungicidal activity against Colletotrichum capsici infected chilli plant assessed as fruit yield measured per plot at 0.1% applied as spray on day 10 post inoculation and twice every 20 days measured on day 155 post sowing in field conditions (reference value: 8.25 to 9.3 kg); type: functional
[21] = test system: Colletotrichum truncatum; assay: Fungicidal activity against Colletotrichum capsici infected chilli plant assessed as percent disease index at 0.1% applied as spray on day 10 post inoculation and twice every 20 days measured on day 155 post sowing in green house conditions (reference value: 62.5 to 68.6%); type: functional
[22] = test system: Colletotrichum truncatum; assay: Fungicidal activity against Colletotrichum capsici assessed as sporulation at 25 ug/ml incubated 16 hr photoperiod for 20 days by haemocytometer (reference value: 0.081 x 10^6 ml'-1); type: functional
[23] = test system: Colletotrichum truncatum; assay: Fungicidal activity against Colletotrichum capsici assessed as spore germination at 0.5 ug/ml after 48 to 96 hr (reference value: 70.2 CFU); type: functional
[24] = test system: Colletotrichum truncatum; assay: Fungicidal activity against Colletotrichum capsici infected chilli plant assessed as fruit length at 0.1% applied as spray on day 10 post inoculation and twice every 20 days measured on day 155 post sowing in green house conditions (reference value: 6.8 to 7 cm); type: functional
[25] = test system: Colletotrichum truncatum; assay: Fungicidal activity against Colletotrichum capsici assessed as reduction of pectin trans-eliminase production at 1 ug/ml incubated for 10 days measured up to 120 min by Ostwald-Fenske viscometric analysis (reference value: 38.5%); type: functional; design: scale not given: the % may be the effect or the level left
[26] = test system: Capsicum annuum; assay: Phytotoxicity in Capsicum annuum (pepper) at 0.1% applied as spray; type: organism-based; conditions: in vivo, other
[27] = test system: Colletotrichum truncatum; assay: Fungicidal activity against Colletotrichum capsici assessed as linear growth at 5 ug/ml incubated 16 hr photoperiod for 20 days (reference value: 90 mm); type: functional
[28] = test system: Colletotrichum truncatum; assay: Fungicidal activity against Colletotrichum capsici assessed as mycelial biomass at 10 ug/ml incubated 16 hr photoperiod for 20 days (reference value: 675 mg); type: functional
[29] = test system: Colletotrichum truncatum; assay: Fungicidal activity against Colletotrichum capsici assessed as linear growth at 50 ug/ml incubated 16 hr photoperiod for 20 days (reference value: 90 mm); type: functional
[30] = test system: Colletotrichum truncatum; assay: Fungicidal activity against Colletotrichum capsici infected chilli plant assessed as percent disease index at 0.1% applied as spray on day 10 post inoculation and twice every 20 days measured on day 155 post sowing in field conditions (reference value: 51 to 56.5%); type: functional
[31] = test system: Colletotrichum truncatum; assay: Fungicidal activity against Colletotrichum capsici assessed as mycelial biomass at 0.1 ug/ml incubated 16 hr photoperiod for 20 days (reference value: 675 mg); type: functional
[32] = test system: Colletotrichum truncatum; assay: Fungicidal activity against Colletotrichum capsici assessed as spore germination at 5 ug/ml after 48 to 96 hr (reference value: 70.2 CFU); type: functional
[33] = test system: Colletotrichum truncatum; assay: Fungicidal activity against Colletotrichum capsici assessed as mycelial biomass at 0.5 ug/ml incubated 16 hr photoperiod for 20 days (reference value: 675 mg); type: functional
[34] = test system: Colletotrichum truncatum; assay: Fungicidal activity against Colletotrichum capsici assessed as sporulation at 1 ug/ml incubated 16 hr photoperiod for 20 days by haemocytometer (reference value: 0.081 x 10^6 ml'-1); type: functional
[35] = test system: Colletotrichum truncatum; assay: Fungicidal activity against Colletotrichum capsici assessed as spore germination at 50 ug/ml after 48 to 96 hr (reference value: 70.2 CFU); type: functional
[36] = test system: Colletotrichum truncatum; assay: Fungicidal activity against Colletotrichum capsici assessed as mycelial biomass at 5 ug/ml incubated 16 hr photoperiod for 20 days (reference value: 675 mg); type: functional
[37] = test system: Colletotrichum truncatum; assay: Fungicidal activity against Colletotrichum capsici infected chilli plant assessed as fruit length measured per plot at 0.1% applied as spray on day 10 post inoculation and twice every 20 days measured on day 155 post sowing in field conditions (reference value: 8 to 8.7 cm); type: functional
[38] = test system: Colletotrichum truncatum; assay: Fungicidal activity against Colletotrichum capsici assessed as reduction of polygalacturonase production at 1 ug/ml incubated for 10 days measured up to 120 min by Ostwald-Fenske viscometric analysis (reference value: 45.3%); type: functional; design: scale not given: the % may be the effect or the level left
[39] = test system: Colletotrichum truncatum; assay: Fungicidal activity against Colletotrichum capsici assessed as spore germination at 1 ug/ml after 48 to 96 hr (reference value: 70.2 CFU); type: functional

In the case of `CC(C)(C)C(O)C(Oc1ccc(-c2ccccc2)cc1)n1cncn1` (configuration not stated) [BITERTANOL], the ED50 [1] is reported as <5 ugAi/ml.

For `COC(=O)Nc1nc2ccccc2[nH]1` [CARBENDAZIM], the Activity [2] was 304 mg, the Activity [3] was 0 ×10⁶ /ml and the Activity [4] was 2.42 ×10⁶ /ml. For the same compound, the inhibition at 0.1 µg/mL [5] was 35%, the CFU [6] was 0 and the Activity [7] was 66.3 mm. For the same compound, the Activity [8] was 0 mg, the CFU [9] was 0 and the Activity [10] was 85.5 mm. The Activity [11] was 1.03 ×10⁶ /ml, the Crop_yield [12] was 120.8 g and the Activity [13] was 19%. The Activity [14] was 46 mg, the Activity [15] was 45.8 mm and the Activity [16] was 9 mm. For the same compound, the Activity [17] was 21.3 mm, the Activity [18] was 0 ×10⁶ /ml and the Activity [19] was 3.53 ×10⁶ /ml. It also gave a Crop_yield [20] of 11.25 kg, a PDI [21] of 27.7% and an Activity [22] of 0 ×10⁶ /ml. For the same compound, the CFU [23] was 32.2, the Activity [24] was 7.3 cm and the Activity [25] was 18%. The Activity [26] was “Non-toxic”, the Activity [27] was 39.5 mm and the Activity [28] was 82 mg. It also gave an Activity [29] of 9 mm, a PDI [30] of 27.5% and an Activity [31] of 570 mg. It also gave a CFU [32] of 3.2, an Activity [33] of 405 mg and an Activity [34] of 1.49 ×10⁶ /ml. For the same compound, the CFU [35] was 0, the Activity [36] was 186 mg and the Activity [37] was 8.5 cm. It also gave an Activity [38] of 13.5% and a CFU [39] of 10.3.

In the case of `C=CCOC(Cn1ccnc1)c1ccc(Cl)cc1Cl` (configuration not stated) [ENILCONAZOLE], the ED50 [1] is reported as <5 ugAi/ml.

For `CCCCC(O)(Cn1cncn1)c1ccc(Cl)cc1Cl` (configuration not stated) [HEXACONAZOLE], the ED50 [1] was <5 ugAi/ml.

For `c1ccc2[nH]c(-c3cscn3)nc2c1` [THIABENDAZOLE], the ED50 [1] was <5 ugAi/ml.
